Test results reported in patent US11229652B2, “Treatments for autoimmune disease” (THE PROVOST, FELLOWS, FOUNDATION SCHOLARS, AND THE OTHER …, priority 2014, dated 2022).

Experiments:
[1] = tested on: chronic monophasic EAE disease; test: Chronic monophasic EAE disease in mice; assay type: in vivo, mice (C57BL/6)
Experimental: To assess the potential of these compounds in vivo, a chronic monophasic EAE disease in mice was induced before treatment with the new chemical entity (NCE). EAE Disease was induced in 8-10 week old female mice (C57BL/6) by sub-cutaneous (s.c.) injection of 200 II emulsion containing 150 μg […] peptide (Genscript) in Complete Freund's Adjuvant (CFA; containing 5 mg/ml heat-inactivated Mycobacterium tuberculosis). On the same day, mice were administered 500 ng Pertussis Toxin (Kaketsuken, Japan) intraperitoneally (i.p.) and again two days later. Disease severity was recorded every 24 hours: 0-Normal; 1-flaccid tail; 2-imparied/wobbly gait; 3-complete hind limb weakness; 4-hind limb and forelimb paralysis; 5-moribund state/dead. Protocol is based on the Nature Protocols for Active induction of experimental allergic encephalomyelitis, which includes the scoring methodology: • Stromnes I M, Goverman J M (2006) Active induction of experimental allergic encephalomyelitis. Nat Protoc. 1(4):1810-9.
The EAE score relates to an assessment of disease progression with respect to issues like tail paralysis and limb paralysis, a higher score is a worse condition. A score of 1 indicates decreased tail tone, a score of 2 indicates hind leg weakness (paraparesis), a score of 3 indicates hind limb paralysis and/or incontinence. Note that the untreated animals have a continuous and progressive worsening of disease.
This contrasts with the sustained drop in body weight of non-treated EAE diseased animals to a level 86.4% that of controls at 21 dpi (17.8 grams versus 20.6 grams). Motor coordination and hind-limb strength were also evaluated by the ability of mice to cross a horizontal bar (FIG. 7). Non-diseased animals crossed the bar with an average time of 4.3±0.57 seconds.

[2] = tested on: HPRT:TGT double knockout spleenocytes; test: Proliferation of TGT:HPRT double knockout cells; assay type: cell-based; conditions: 100 μM, FIG. 4c
Excerpt: (§1) FIGS. 4a, 4b, 4c, and 4d depict the molecules effects on total percentage of proliferation in wild-type spleenocytes, HPRT knockout spleenocytes, HPRT:TGT double knockout spleenocytes, and wild-type versus single TGT knockout spleenocytes respectively;

wild-type T cells = test: Proliferation of wild-type cells; assay type: cell-based; conditions: 100 μM, FIG. 4a
Excerpt: as §1

[3] = biological target: queuine-insertase enzyme complex (Homo sapiens, UniProt Q9BXR0); test: [14C] guanine displacement assay (queuine-insertase substrate); assay type: biochemical
Excerpt: The skilled reader will be aware of methods for determining whether or not a particular molecule is a substrate for the queuine-insertase enzyme complex. For example, molecules capable of acting as a queuine-insertase enzyme complex substrate may be identified by use of a displacement assay as described below (FIG. 1):
Production of [8-^14C] Guanine Labeled tRNA (tRNA*)
Before adding the 8-[^14C] guanine solution to the reaction the solution was neutralised with an equal volume (vol/vol) 0.01 M NaOH, as the [8-^14C] Guanine is supplied in 0.01 M HCl aqueous solution. A stock solution of yeast tRNA from Saccharomyces cerevisiae was made to a concentration of 2 absorbance units (260 nm) in ultrapure nuclease-free water. The recombinant Escherichia coli (E. coli) tRNA guanine transglycosylase enzyme (E. coli TGT) containing an N-terminal polyhistidine tag was produced in BL21 BL21(DE3) tgt:Kmr cells as described previously (Boland et al., 2009).
The reaction was incubated for 2 h at 37° C. After incubation the reaction was made up to 400 μL with buffer. […] The tRNA* pellet was resuspended in 20 μL nuclease-free water and the concentration measured spectrophotometrically at A260. […]
After incubation the reaction was loaded onto the column and spun at 0.1×g for 10 seconds. […] The vials containing the flow-through and washes are counted for displaced [^14C] guanine. […]

HPRT [4] = biological target: T1, HPRT (Homo sapiens, UniProt P00492); test: HPRT assay (substrate or inhibitor of HPRT); assay type: biochemical; conditions: in vitro, FIG. 2
T1 sequence (P00492 1-218): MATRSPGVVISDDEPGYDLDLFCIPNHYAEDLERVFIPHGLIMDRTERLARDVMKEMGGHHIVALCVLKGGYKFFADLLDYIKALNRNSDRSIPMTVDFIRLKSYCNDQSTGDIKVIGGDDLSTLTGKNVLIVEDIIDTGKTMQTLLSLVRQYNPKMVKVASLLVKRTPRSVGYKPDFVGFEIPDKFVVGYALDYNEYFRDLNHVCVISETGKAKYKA
Excerpt: Similarly, the skilled reader will be aware of methods suitable for determining whether a compound is a substrate or inhibitor of HPRT. For example, molecules that are […] for HPRT may be identified by use of the following assay:
Assay to Evaluate Compounds as Substrates or Inhibitors of the Hypoxanthine-Guanine Phosphoribosyltransferase Enzyme or ‘HPRT Assay’ (FIG. 2).
Preparation and Equilibration of Column:
Dowex-1×8, mesh size 200-400, was weighed out in a sterile 50 ml tube and washed 3 times with aqueous 1 M HCl to charge the resin. The resin was then washed 5-6 times with (20 mls each) Milli-Q H2O until a neutral pH was reached. Columns (Bio-rad 10 mL plastic columns) were set up with 1 mL of wet Dowex (wet mix applied, allowed to settle and more applied until a packed volume of 1 mL was reached). The packed resin was rinsed with 10 volumes (v/v) milli-Q H2O to ensure that a neutral pH and consistent packing was achieved.
HPRT Reactions are set up in 100 μL volume in triplicate with the following components: […]
After inactivation, the reactions were cooled to room temperature (using ice), before being applied to a 1 mL packed resin column of Dowex-1×8, mesh size 200-400. […] 15 mL of scintillation cocktail (Ecoscint A) was added and vials counted to evaluate the level of conversion of [8-^14C]-guanine to GMP. […]

TGT KO cells = test: Proliferation of TGT knockout cells; assay type: cell-based; conditions: 100 μM, FIG. 4d
Excerpt: as §1

HPRT [5] = biological target: T1, HPRT; conditions: higher for HPRT; cited from earlier work
[6] = tested on: Experimental Autoimmune Encephalomyelitis; EAE; conditions: earlier work; cited from earlier work
DNA = conditions: incorporated into DNA after HPRT activity; cited from earlier work

Chain of queuine-insertase enzyme complex (Q9BXR0 whole entry): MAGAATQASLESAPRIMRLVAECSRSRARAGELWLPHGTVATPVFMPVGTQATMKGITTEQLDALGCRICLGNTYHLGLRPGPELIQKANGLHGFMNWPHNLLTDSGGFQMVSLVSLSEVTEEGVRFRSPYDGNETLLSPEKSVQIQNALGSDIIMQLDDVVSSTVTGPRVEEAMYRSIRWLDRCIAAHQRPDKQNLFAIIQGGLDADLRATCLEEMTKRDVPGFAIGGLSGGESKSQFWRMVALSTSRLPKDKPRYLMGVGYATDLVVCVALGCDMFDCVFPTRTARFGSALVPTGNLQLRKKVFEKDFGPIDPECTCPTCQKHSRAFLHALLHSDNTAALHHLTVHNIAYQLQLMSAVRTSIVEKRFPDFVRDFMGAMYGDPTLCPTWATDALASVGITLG
Chain of queuine-insertase enzyme complex (Q9H974 whole entry partner): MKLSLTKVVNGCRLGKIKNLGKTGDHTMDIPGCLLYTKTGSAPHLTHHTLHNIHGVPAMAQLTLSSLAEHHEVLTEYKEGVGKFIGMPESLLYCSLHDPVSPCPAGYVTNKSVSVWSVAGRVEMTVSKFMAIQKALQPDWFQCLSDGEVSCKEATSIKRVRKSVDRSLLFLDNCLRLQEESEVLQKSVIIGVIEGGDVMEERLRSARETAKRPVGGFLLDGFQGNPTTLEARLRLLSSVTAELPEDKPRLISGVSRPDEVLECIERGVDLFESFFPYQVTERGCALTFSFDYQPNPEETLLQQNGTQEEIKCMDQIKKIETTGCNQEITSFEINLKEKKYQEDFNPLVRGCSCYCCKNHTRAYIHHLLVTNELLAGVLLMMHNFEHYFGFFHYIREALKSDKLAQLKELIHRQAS

Cl.Nc1nc2[nH]cc(CNCCCc3ccccc3)c2c(=O)[nH]1 [Compound I, N-((2-amino-4-oxo-4,7-dihydro-3H-pyrrolo[2,3-d]pyrimidin-5-yl)methyl)-3-phenylpropan-1-aminium chloride]
EAE score outcome after 4 daily treatments ([1]; EAE mice, 30 mg/kg, i.p., FIG. 5): disease free
time to reversal of symptoms ([1]; EAE mice, 30 mg/kg, i.p., highest dosage, FIG. 5): ≤ 24 h
EAE disease progression ([1]; EAE mice, lower doses, FIG. 5): disease progression was halted and reversed
motor coordination and hind-limb strength (horizontal bar crossing) ([1]; EAE mice, within 4 treatments, FIG. 7): fully restored the performance of EAE diseased mice to control levels
weight level relative to controls ([1]; treated EAE mice, 21 days post inoculation, FIG. 6): 96.6%
body weight ([1]; treated EAE mice, 21 days post inoculation, controls 20.6 grams, FIG. 6): 19.9 grams
effect on proliferation [2]: essentially unaffected
proliferation (wild-type T cells): less than 50%
substrate for TGT (queuine-insertase enzyme complex) ([3]; in vitro, recombinant TGT enzyme, FIG. 1): substrate for TGT
substrate or inhibitor of HPRT (HPRT [4]): not to be a substrate or inhibitor
effect on proliferation (TGT KO cells): lack of effect

Nc1nc2nc[nH]c2c(=S)[nH]1 [Example 6TG, 6-thioguanine]
substrate potency for HPRT relative to queuine-insertase enzyme complex (HPRT [5]): approx. 10 fold
effect on the murine model of chronic MS (EAE) [6]: dramatic effect
genotoxicity (DNA): genotoxic

Nc1nc2[nH]cc(CN[C@H]3C=C[C@H](O)[C@@H]3O)c2c(=O)[nH]1 [queuine, 2-amino-5-((((1S,4S,5R)-4,5-dihydroxycyclopent-2-en-1-yl)amino)methyl)-3,7-dihydro-4H-pyrrolo[2,3-d]pyrimidin-4-one, reference compound]
maximum displacement of [14C] guanine ([3]; 200 μM compound, background ≤10 pmol, ≥50 pmol counts as positive substrate): 240 pmol
